Measured values published in the supplement of paper PMC13207355.

How the values were obtained:
Conditions in all cases: exposure time: 72 h
E21 [1] = patient-derived glioblastoma stem cells of mesenchymal subtype; test: phenotypic distance (Euclidean, principal components) from DMSO controls (arbitrary units); higher = stronger morphological change
E13 [2] = patient-derived glioblastoma stem cells of classical subtype; test: as above
E28 [3] = patient-derived glioblastoma stem cells of classical subtype; test: as above
E34 [4] = patient-derived glioblastoma stem cells of proneural subtype; test: as above
E31 [5] = patient-derived glioblastoma stem cells of proneural subtype; test: as above
E57 [6] = patient-derived glioblastoma stem cells of mesenchymal subtype; test: as above
FT3469 [7] = normal neural stem cell line; test: as above
E21 [8] = test: surviving fraction (nuclei count normalised to DMSO); higher = more cells surviving (less toxic)
E13 [9] = test: as above
E28 [10] = test: as above
E34 [11] = test: as above
E31 [12] = test: as above
E57 [13] = test: as above
FT3469 [14] = test: as above
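Throughout, for phenotypic distance (Euclidean, principal components) from DMSO controls: cell Painting imaging in 384-well plates, CellProfiler features reduced to at least 20 principal components, Euclidean distance versus same-plate DMSO vehicle wells (0.1% v/v), median over six images per well.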
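Throughout, for surviving fraction (nuclei count normalised to DMSO): nuclei counted by high-content imaging of Hoechst-stained cells in laminin-coated 384-well plates, relative to 0.1% DMSO vehicle wells, with staurosporine as cell-death control.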

CC(C)C[C@H](NC(=O)[C@H](CCc1ccccc1)NC(=O)CN1CCOCC1)C(=O)N[C@@H](Cc1ccccc1)C(=O)N[C@@H](CC(C)C)C(=O)[C@@]1(C)CO1 [Carfilzomib]
Conditions | phenotypic distance | surviving fraction
E13 [2], 4.1 nM | 7.83 | –
E13 [2], 12.3 nM | 12.9 | –
E13 [2], 37 nM | 15.6 | –
E13 [2], 111.1 nM | 16.7 | –
E13 [2], 333.3 nM | 13.2 | –
E13 [2], 1000 nM | 18.4 | –
E13 [2], 3000 nM | 20.8 | –
E13 [9], 4.1 nM | – | 0.0693
E13 [9], 12.3 nM | – | 0.000925
E13 [9], 37 nM | – | 0.00185
E13 [9], 111.1 nM | – | 0.0037
E13 [9], 333.3 nM | – | 0.00277
E13 [9], 1000 nM | – | 0
E13 [9], 3000 nM | – | 0
E21 [1], 4.1 nM | 6.32 | –
E21 [1], 12.3 nM | 12.1 | –
E21 [1], 37 nM | 18.5 | –
E21 [1], 111.1 nM | 17.9 | –
E21 [1], 333.3 nM | 24 | –
E21 [1], 1000 nM | 18.7 | –
E21 [1], 3000 nM | 17.1 | –
E21 [8], 4.1 nM | – | 0.281
E21 [8], 12.3 nM | – | 0.00694
E21 [8], 37 nM | – | 0.00198
E21 [8], 111.1 nM | – | 0.000991
E21 [8], 333.3 nM | – | 0
E21 [8], 1000 nM | – | 0.00297
E21 [8], 3000 nM | – | 0.000991
E28 [3], 4.1 nM | 3.34 | –
E28 [3], 12.3 nM | 5.12 | –
E28 [3], 37 nM | 6.26 | –
E28 [3], 111.1 nM | 5.31 | –
E28 [3], 333.3 nM | 5.36 | –
E28 [3], 1000 nM | 5.52 | –
E28 [3], 3000 nM | 5.18 | –
E28 [10], 4.1 nM | – | 0.177
E28 [10], 12.3 nM | – | 0.0576
E28 [10], 37 nM | – | 0.0811
E28 [10], 111.1 nM | – | 0.0683
E28 [10], 333.3 nM | – | 0.109
E28 [10], 1000 nM | – | 0.0768
E28 [10], 3000 nM | – | 0.16
E31 [5], 4.1 nM | 8.54 | –
E31 [5], 12.3 nM | 12.7 | –
E31 [5], 37 nM | 11.3 | –
E31 [5], 111.1 nM | 12.1 | –
E31 [5], 333.3 nM | 9.53 | –
E31 [5], 1000 nM | 9.35 | –
E31 [5], 3000 nM | 8.45 | –
E31 [12], 4.1 nM | – | 0.0683
E31 [12], 12.3 nM | – | 0.00163
E31 [12], 37 nM | – | 0.00651
E31 [12], 111.1 nM | – | 0.00163
E31 [12], 333.3 nM | – | 0.00814
E31 [12], 1000 nM | – | 0.013
E31 [12], 3000 nM | – | 0.0195
E34 [4], 4.1 nM | 5.47 | –
E34 [4], 12.3 nM | 11.7 | –
E34 [4], 37 nM | 12.5 | –
E34 [4], 111.1 nM | 13.8 | –
E34 [4], 333.3 nM | 15.8 | –
E34 [4], 1000 nM | 14.1 | –
E34 [4], 3000 nM | 14.9 | –
E34 [11], 4.1 nM | – | 0.262
E34 [11], 12.3 nM | – | 0.0542
E34 [11], 37 nM | – | 0.035
E34 [11], 111.1 nM | – | 0.0297
E34 [11], 333.3 nM | – | 0.042
E34 [11], 1000 nM | – | 0.035
E34 [11], 3000 nM | – | 0.0455
E57 [6], 4.1 nM | 12.2 | –
E57 [6], 12.3 nM | 12.4 | –
E57 [6], 37 nM | 11.4 | –
E57 [6], 111.1 nM | 12.8 | –
E57 [6], 333.3 nM | 8.61 | –
E57 [6], 1000 nM | 14.1 | –
E57 [6], 3000 nM | 13.2 | –
E57 [13], 4.1 nM | – | 0.0418
E57 [13], 12.3 nM | – | 0.00509
E57 [13], 37 nM | – | 0.00509
E57 [13], 111.1 nM | – | 0.00305
E57 [13], 333.3 nM | – | 0.00509
E57 [13], 1000 nM | – | 0.00407
E57 [13], 3000 nM | – | 0.00458
FT3469 [7], 4.1 nM | 5.32 | –
FT3469 [7], 12.3 nM | 7.47 | –
FT3469 [7], 37 nM | 7.85 | –
FT3469 [7], 111.1 nM | 6.13 | –
FT3469 [7], 333.3 nM | 7.43 | –
FT3469 [7], 1000 nM | 6.91 | –
FT3469 [7], 3000 nM | 7.23 | –
FT3469 [14], 4.1 nM | – | 0.224
FT3469 [14], 12.3 nM | – | 0.158
FT3469 [14], 37 nM | – | 0.124
FT3469 [14], 111.1 nM | – | 0.095
FT3469 [14], 333.3 nM | – | 0.0806
FT3469 [14], 1000 nM | – | 0.112
FT3469 [14], 3000 nM | – | 0.0863

CN1C(=O)OC(C)(C)C1=O [Trimethadione]
Conditions | phenotypic distance | surviving fraction
E13 [2], 4.1 nM | 0.619 | –
E13 [2], 12.3 nM | 0.485 | –
E13 [2], 37 nM | 0.498 | –
E13 [2], 111.1 nM | 0.332 | –
E13 [2], 333.3 nM | 0.419 | –
E13 [2], 1000 nM | 0.395 | –
E13 [2], 3000 nM | 0.509 | –
E13 [9], 4.1 nM | – | 0.872
E13 [9], 12.3 nM | – | 1.05
E13 [9], 37 nM | – | 0.904
E13 [9], 111.1 nM | – | 0.943
E13 [9], 333.3 nM | – | 0.94
E13 [9], 1000 nM | – | 1.07
E13 [9], 3000 nM | – | 0.9
E21 [1], 4.1 nM | 0.779 | –
E21 [1], 12.3 nM | 0.495 | –
E21 [1], 37 nM | 0.506 | –
E21 [1], 111.1 nM | 0.324 | –
E21 [1], 333.3 nM | 0.36 | –
E21 [1], 1000 nM | 0.29 | –
E21 [1], 3000 nM | 0.461 | –
E21 [8], 4.1 nM | – | 0.949
E21 [8], 12.3 nM | – | 1.02
E21 [8], 37 nM | – | 0.937
E21 [8], 111.1 nM | – | 1.05
E21 [8], 333.3 nM | – | 1.01
E21 [8], 1000 nM | – | 0.949
E21 [8], 3000 nM | – | 1.03
E28 [3], 4.1 nM | 0.624 | –
E28 [3], 12.3 nM | 0.657 | –
E28 [3], 37 nM | 0.665 | –
E28 [3], 111.1 nM | 0.367 | –
E28 [3], 333.3 nM | 0.471 | –
E28 [3], 1000 nM | 0.385 | –
E28 [3], 3000 nM | 0.844 | –
E28 [10], 4.1 nM | – | 0.994
E28 [10], 12.3 nM | – | 1.14
E28 [10], 37 nM | – | 0.959
E28 [10], 111.1 nM | – | 1.03
E28 [10], 333.3 nM | – | 1
E28 [10], 1000 nM | – | 1
E28 [10], 3000 nM | – | 0.903
E31 [5], 4.1 nM | 0.578 | –
E31 [5], 12.3 nM | 0.705 | –
E31 [5], 37 nM | 0.678 | –
E31 [5], 111.1 nM | 0.582 | –
E31 [5], 333.3 nM | 0.402 | –
E31 [5], 1000 nM | 0.343 | –
E31 [5], 3000 nM | 0.599 | –
E31 [12], 4.1 nM | – | 0.999
E31 [12], 12.3 nM | – | 1.03
E31 [12], 37 nM | – | 0.936
E31 [12], 111.1 nM | – | 1.15
E31 [12], 333.3 nM | – | 1.04
E31 [12], 1000 nM | – | 1.01
E31 [12], 3000 nM | – | 0.759
E34 [4], 4.1 nM | 0.536 | –
E34 [4], 12.3 nM | 0.379 | –
E34 [4], 37 nM | 0.464 | –
E34 [4], 111.1 nM | 1.03 | –
E34 [4], 333.3 nM | 0.604 | –
E34 [4], 1000 nM | 0.565 | –
E34 [4], 3000 nM | 0.885 | –
E34 [11], 4.1 nM | – | 1.12
E34 [11], 12.3 nM | – | 1.04
E34 [11], 37 nM | – | 1.04
E34 [11], 111.1 nM | – | 0.867
E34 [11], 333.3 nM | – | 0.972
E34 [11], 1000 nM | – | 0.961
E34 [11], 3000 nM | – | 0.86
E57 [6], 4.1 nM | 0.62 | –
E57 [6], 12.3 nM | 0.587 | –
E57 [6], 37 nM | 0.572 | –
E57 [6], 111.1 nM | 0.439 | –
E57 [6], 333.3 nM | 0.455 | –
E57 [6], 1000 nM | 1.11 | –
E57 [6], 3000 nM | 0.844 | –
E57 [13], 4.1 nM | – | 1.11
E57 [13], 12.3 nM | – | 0.909
E57 [13], 37 nM | – | 1.04
E57 [13], 111.1 nM | – | 1.04
E57 [13], 333.3 nM | – | 1
E57 [13], 1000 nM | – | 0.96
E57 [13], 3000 nM | – | 0.885
FT3469 [7], 4.1 nM | 0.493 | –
FT3469 [7], 12.3 nM | 0.946 | –
FT3469 [7], 37 nM | 0.598 | –
FT3469 [7], 111.1 nM | 0.319 | –
FT3469 [7], 333.3 nM | 0.852 | –
FT3469 [7], 1000 nM | 0.673 | –
FT3469 [7], 3000 nM | 0.994 | –
FT3469 [14], 4.1 nM | – | 1.05
FT3469 [14], 12.3 nM | – | 0.973
FT3469 [14], 37 nM | – | 0.987
FT3469 [14], 111.1 nM | – | 1.03
FT3469 [14], 333.3 nM | – | 0.983
FT3469 [14], 1000 nM | – | 1.03
FT3469 [14], 3000 nM | – | 0.855
